From patent US10670605B2, “Cysteine reactive probes and uses thereof” (The Scripps Research Institute, priority 2015, dated 2020)

What was measured:
Experiment in all cases: Competitive isoTOP-ABPP, cell lysates
Type in all cases: binding
DCUN1D1 C115 (Q96GG9) = DCUN1D1 C115 (Q96GG9) (Homo sapiens, UniProt Q96GG9); conditions: for isoTOP-ABPP reactivity ratio, Q96GG9_C115: 500 μm, in-vitro_ramos
GNB2L1 C182 (P63244) = GNB2L1 C182 (P63244) (Homo sapiens, UniProt P63244); conditions: for isoTOP-ABPP ratio, P63244_C182: 500 μM, invitro; for isoTOP-ABPP reactivity ratio, P63244_C182: 500 μm
GSTP1 C48 (P09211) = GSTP1 C48 (P09211) (Homo sapiens, UniProt P09211); conditions: for isoTOP-ABPP ratio, P09211_C48: 500 μM, invitro; for isoTOP-ABPP reactivity ratio, P09211_C48: 500 μm
MGMT C150 (P16455) = target: T1, MGMT C150 (P16455) (Homo sapiens, UniProt P16455); conditions: for isoTOP-ABPP ratio (reactivity profile), P16455_C150: 500 μm in-vitro ramos; for isoTOP-ABPP reactivity ratio, P16455_C150: 500 μm, in-vitro_ramos
T1 sequence (P16455 1-207): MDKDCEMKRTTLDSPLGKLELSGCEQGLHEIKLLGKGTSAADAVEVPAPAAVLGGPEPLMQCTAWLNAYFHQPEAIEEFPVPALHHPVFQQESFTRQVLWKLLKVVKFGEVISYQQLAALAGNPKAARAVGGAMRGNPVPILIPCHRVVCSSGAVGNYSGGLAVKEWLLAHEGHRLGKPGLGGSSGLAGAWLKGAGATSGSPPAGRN

PDE12 C108 (Q6L8Q7) = target: T2, PDE12 C108 (Q6L8Q7) (Homo sapiens, UniProt Q6L8Q7); conditions: for isoTOP-ABPP ratio, Q6L8Q7_C108: 500 μM, invitro; for isoTOP-ABPP reactivity ratio, Q6L8Q7_C108: 500 μm, in-vitro_ramos_231
T2 sequence (Q6L8Q7 43-609): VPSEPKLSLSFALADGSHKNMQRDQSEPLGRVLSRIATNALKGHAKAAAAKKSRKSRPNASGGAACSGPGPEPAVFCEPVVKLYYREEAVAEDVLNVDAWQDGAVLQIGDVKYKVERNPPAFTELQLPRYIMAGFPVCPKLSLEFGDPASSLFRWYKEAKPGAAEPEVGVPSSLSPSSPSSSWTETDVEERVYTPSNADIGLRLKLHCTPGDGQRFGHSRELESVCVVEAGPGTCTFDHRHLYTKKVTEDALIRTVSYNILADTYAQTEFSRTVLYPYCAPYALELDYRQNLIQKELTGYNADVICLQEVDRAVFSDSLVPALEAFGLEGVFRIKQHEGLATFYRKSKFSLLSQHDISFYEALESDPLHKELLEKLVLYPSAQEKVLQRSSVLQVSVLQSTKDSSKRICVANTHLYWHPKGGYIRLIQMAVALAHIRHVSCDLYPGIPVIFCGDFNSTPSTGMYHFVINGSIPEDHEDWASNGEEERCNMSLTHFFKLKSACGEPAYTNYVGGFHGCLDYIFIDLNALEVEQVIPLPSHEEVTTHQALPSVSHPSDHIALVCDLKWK

PDIA6 C190 (Q15084) = target: T3, PDIA6 C190 (Q15084) (Homo sapiens, UniProt Q15084); conditions: for isoTOP-ABPP ratio, Q15084_C190: 500 μM, invitro; for isoTOP-ABPP reactivity ratio, Q15084_C190: 500 μm
T3 sequence (Q15084 20-440): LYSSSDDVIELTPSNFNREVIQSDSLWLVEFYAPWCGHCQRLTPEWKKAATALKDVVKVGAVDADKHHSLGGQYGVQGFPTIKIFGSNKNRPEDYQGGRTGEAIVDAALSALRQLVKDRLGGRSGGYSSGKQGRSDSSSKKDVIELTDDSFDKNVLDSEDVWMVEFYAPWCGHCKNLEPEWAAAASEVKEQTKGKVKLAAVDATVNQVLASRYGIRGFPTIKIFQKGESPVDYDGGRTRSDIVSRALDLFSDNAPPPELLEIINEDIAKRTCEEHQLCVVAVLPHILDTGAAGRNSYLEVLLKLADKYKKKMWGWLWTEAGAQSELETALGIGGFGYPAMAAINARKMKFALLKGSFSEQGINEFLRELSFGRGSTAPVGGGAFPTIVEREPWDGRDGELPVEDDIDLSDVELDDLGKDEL

PRMT1 C109 (Q99873) = PRMT1 C109 (Q99873) (Homo sapiens, UniProt Q99873); conditions: for isoTOP-ABPP ratio, Q99873_C109: 500 μM, invitro; for isoTOP-ABPP reactivity ratio, Q99873_C109: 500 μm
XPO1 C34 (O14980) = XPO1 C34 (O14980) (Homo sapiens, UniProt O14980); conditions: for isoTOP-ABPP ratio, O14980_C34: 500 μM, invitro; for isoTOP-ABPP reactivity ratio, O14980_C34: 500 μm
ZNF217 C286 (O75362) = ZNF217 C286 (O75362) (Homo sapiens, UniProt O75362)
Chain of ZNF217 C286 (O75362) (O75362 whole entry): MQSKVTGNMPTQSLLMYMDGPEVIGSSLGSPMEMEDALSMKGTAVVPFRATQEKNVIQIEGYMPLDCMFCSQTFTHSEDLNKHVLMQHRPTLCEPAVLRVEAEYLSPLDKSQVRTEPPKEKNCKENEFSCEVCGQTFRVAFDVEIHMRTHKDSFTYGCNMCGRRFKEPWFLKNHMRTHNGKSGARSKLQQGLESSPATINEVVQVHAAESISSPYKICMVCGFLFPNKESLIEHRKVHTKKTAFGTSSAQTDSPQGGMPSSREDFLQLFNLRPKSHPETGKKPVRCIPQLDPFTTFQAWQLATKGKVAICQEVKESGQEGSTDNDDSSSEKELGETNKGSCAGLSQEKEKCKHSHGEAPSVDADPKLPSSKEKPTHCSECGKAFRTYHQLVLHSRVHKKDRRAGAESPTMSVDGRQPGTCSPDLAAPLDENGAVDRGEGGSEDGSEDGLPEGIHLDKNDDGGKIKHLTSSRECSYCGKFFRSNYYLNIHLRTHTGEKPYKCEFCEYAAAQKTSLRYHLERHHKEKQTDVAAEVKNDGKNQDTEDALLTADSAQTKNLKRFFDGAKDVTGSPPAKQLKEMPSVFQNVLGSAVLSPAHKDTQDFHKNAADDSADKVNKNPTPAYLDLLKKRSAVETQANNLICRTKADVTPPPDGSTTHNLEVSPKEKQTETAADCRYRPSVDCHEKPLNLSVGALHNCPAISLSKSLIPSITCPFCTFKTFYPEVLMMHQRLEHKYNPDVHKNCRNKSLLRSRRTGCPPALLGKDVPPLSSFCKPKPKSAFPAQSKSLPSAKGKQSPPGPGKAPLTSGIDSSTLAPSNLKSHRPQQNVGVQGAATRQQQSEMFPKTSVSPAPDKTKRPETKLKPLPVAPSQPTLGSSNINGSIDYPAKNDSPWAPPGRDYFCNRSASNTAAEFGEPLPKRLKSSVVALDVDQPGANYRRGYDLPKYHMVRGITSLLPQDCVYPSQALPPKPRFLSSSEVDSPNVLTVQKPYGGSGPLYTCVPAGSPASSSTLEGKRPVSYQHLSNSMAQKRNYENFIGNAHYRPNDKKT

Chain of PRMT1 C109 (Q99873) (Q99873 whole entry): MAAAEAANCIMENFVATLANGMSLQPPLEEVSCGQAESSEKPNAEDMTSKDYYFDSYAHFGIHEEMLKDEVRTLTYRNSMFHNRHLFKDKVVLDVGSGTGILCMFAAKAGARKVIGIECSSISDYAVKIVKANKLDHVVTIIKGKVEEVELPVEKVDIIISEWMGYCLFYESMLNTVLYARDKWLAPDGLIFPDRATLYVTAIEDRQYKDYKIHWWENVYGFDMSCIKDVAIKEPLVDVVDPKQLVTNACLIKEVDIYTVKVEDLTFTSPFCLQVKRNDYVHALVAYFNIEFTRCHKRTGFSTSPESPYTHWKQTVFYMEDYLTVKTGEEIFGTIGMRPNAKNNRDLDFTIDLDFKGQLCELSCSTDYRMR
Chain of GSTP1 C48 (P09211) (P09211 whole entry): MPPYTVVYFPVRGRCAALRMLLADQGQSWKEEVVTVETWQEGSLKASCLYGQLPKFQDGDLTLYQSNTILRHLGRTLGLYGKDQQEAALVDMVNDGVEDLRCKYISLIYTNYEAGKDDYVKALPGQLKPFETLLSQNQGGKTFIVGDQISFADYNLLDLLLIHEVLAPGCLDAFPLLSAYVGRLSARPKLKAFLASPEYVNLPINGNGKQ
Chain of DCUN1D1 C115 (Q96GG9) (Q96GG9 whole entry): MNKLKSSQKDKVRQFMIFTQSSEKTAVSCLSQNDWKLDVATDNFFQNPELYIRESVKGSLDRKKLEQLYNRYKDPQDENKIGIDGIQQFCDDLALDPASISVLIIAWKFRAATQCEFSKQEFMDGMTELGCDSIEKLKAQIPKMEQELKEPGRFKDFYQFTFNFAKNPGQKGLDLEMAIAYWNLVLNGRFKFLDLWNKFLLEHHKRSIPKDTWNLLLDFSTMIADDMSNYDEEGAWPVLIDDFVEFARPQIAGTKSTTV
Chain of XPO1 C34 (O14980) (O14980 whole entry): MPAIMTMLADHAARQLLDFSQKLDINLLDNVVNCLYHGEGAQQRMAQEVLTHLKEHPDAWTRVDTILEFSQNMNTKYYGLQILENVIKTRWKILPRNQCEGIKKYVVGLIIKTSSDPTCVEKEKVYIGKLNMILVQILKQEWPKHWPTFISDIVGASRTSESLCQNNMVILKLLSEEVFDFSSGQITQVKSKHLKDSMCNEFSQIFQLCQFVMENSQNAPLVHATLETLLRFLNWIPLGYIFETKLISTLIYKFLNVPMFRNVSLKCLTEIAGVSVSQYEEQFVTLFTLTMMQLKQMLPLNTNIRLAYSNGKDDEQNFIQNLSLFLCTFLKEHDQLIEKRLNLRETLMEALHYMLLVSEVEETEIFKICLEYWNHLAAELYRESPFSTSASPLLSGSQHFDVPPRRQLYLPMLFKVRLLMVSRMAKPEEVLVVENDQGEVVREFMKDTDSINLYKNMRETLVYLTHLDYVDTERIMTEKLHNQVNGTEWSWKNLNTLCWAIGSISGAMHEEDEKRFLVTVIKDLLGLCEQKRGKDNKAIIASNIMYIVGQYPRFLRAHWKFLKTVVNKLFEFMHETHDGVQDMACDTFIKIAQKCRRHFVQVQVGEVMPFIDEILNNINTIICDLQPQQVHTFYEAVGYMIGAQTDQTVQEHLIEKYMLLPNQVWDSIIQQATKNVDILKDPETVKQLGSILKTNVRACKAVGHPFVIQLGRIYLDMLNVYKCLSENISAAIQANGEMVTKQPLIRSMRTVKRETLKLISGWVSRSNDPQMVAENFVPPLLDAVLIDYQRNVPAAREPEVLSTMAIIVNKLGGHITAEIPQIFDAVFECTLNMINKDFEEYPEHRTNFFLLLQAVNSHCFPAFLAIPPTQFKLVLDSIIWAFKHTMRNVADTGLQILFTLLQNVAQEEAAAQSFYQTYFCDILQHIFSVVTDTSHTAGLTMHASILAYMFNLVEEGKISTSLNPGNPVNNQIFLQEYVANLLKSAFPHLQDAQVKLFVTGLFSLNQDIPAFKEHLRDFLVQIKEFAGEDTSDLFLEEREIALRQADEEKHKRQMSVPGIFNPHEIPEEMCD

Row | SMILES | isoTOP-ABPP ratio (reactivity profile), Q96GG9_C115 (DCUN1D1 C115 (Q96GG9); 500 μm in-vitro ramos) | isoTOP-ABPP ratio (reactivity profile), P63244_C182 (GNB2L1 C182 (P63244); 500 μm in-vitro ramos) | isoTOP-ABPP ratio (reactivity profile), P09211_C48 (GSTP1 C48 (P09211); 500 μm in-vitro ramos) | isoTOP-ABPP ratio (reactivity profile), P16455_C150 (MGMT C150 (P16455)) | isoTOP-ABPP ratio (reactivity profile), Q15084_C190 (PDIA6 C190 (Q15084); 500 μm in-vitro ramos) | isoTOP-ABPP ratio (reactivity profile), Q99873_C109 (PRMT1 C109 (Q99873); 500 μm in-vitro ramos) | isoTOP-ABPP ratio (reactivity profile), O14980_C34 (XPO1 C34 (O14980); 500 μm in-vitro ramos) | isoTOP-ABPP ratio, P09211_C48 (GSTP1 C48 (P09211); 231) | isoTOP-ABPP ratio, Q99873_C109 (PRMT1 C109 (Q99873); 231) | isoTOP-ABPP reactivity ratio, Q96GG9_C115 (DCUN1D1 C115 (Q96GG9)) | isoTOP-ABPP reactivity ratio, P63244_C182 (GNB2L1 C182 (P63244); in-vitro_ramos_231) | isoTOP-ABPP reactivity ratio, P09211_C48 (GSTP1 C48 (P09211); in-vitro_ramos) | isoTOP-ABPP reactivity ratio, P09211_C48 (GSTP1 C48 (P09211); in-vitro_ramos_231) | isoTOP-ABPP reactivity ratio, P16455_C150 (MGMT C150 (P16455)) | isoTOP-ABPP reactivity ratio, Q6L8Q7_C108 (PDE12 C108 (Q6L8Q7)) | isoTOP-ABPP reactivity ratio, Q15084_C190 (PDIA6 C190 (Q15084); in-vitro_ramos_231) | isoTOP-ABPP reactivity ratio, Q99873_C109 (PRMT1 C109 (Q99873); in-vitro_ramos) | isoTOP-ABPP reactivity ratio, Q99873_C109 (PRMT1 C109 (Q99873); in-vitro_ramos_231) | isoTOP-ABPP reactivity ratio, O14980_C34 (XPO1 C34 (O14980); in-vitro_ramos) | isoTOP-ABPP reactivity ratio, O14980_C34 (XPO1 C34 (O14980); in-vitro_ramos_231) | also measured
1 | O=C(CCl)N1CCC(C(O)(c2ccccc2)c2ccccc2)CC1 [compound 20] | 1.2 | 1.1 | 1.1 | 18.3 | 2.1 | 2.2 | 1.2 |  |  |  |  |  |  |  |  |  |  |  |  |  | isoTOP-ABPP ratio (reactivity profile), Q96GG9_C115 (DCUN1D1 C115 (Q96GG9); 500 μm in-vitro ramos_231): 1.2; isoTOP-ABPP ratio (reactivity profile), P63244_C182 (GNB2L1 C182 (P63244); 500 μm in-vitro ramos_231): 1.4; isoTOP-ABPP ratio (reactivity profile), P09211_C48 (GSTP1 C48 (P09211); 500 μm in-vitro ramos_231): 2.5; isoTOP-ABPP ratio (reactivity profile), Q6L8Q7_C108 (PDE12 C108 (Q6L8Q7); 500 μm in-vitro ramos_231): 1.6; isoTOP-ABPP ratio (reactivity profile), Q15084_C190 (PDIA6 C190 (Q15084); 500 μm in-vitro ramos_231): 2.1; isoTOP-ABPP ratio (reactivity profile), Q99873_C109 (PRMT1 C109 (Q99873); 500 μm in-vitro ramos_231): 1.9; isoTOP-ABPP ratio (reactivity profile), O14980_C34 (XPO1 C34 (O14980); 500 μm in-vitro ramos_231): 1.0; isoTOP-ABPP ratio (reactivity profile), O75362_C286 (ZNF217 C286 (O75362); 500 μm in-vitro ramos_231): 1.3
2 | O=C(CCl)NC(=O)NC12CC3CC(CC(C3)C1)C2 [compound 12] |  |  |  |  |  |  |  | 2.9 | 1.4 |  |  |  |  |  |  |  |  |  |  |  | isoTOP-ABPP ratio, Q96GG9_C115 (DCUN1D1 C115 (Q96GG9); 500 μM, invitro, ramos): 0.6; isoTOP-ABPP ratio, P63244_C182 (GNB2L1 C182 (P63244); 231): 0.9; isoTOP-ABPP ratio, P63244_C182 (GNB2L1 C182 (P63244); ramos): 0.8; isoTOP-ABPP ratio, P09211_C48 (GSTP1 C48 (P09211); ramos): 1.1; isoTOP-ABPP ratio, P16455_C150 (MGMT C150 (P16455); 500 μM, invitro, ramos): 20.0; isoTOP-ABPP ratio, Q6L8Q7_C108 (PDE12 C108 (Q6L8Q7); ramos): 1.5; isoTOP-ABPP ratio, Q15084_C190 (PDIA6 C190 (Q15084); ramos): 20.0; isoTOP-ABPP ratio, Q99873_C109 (PRMT1 C109 (Q99873); ramos): 1.3; isoTOP-ABPP ratio, O14980_C34 (XPO1 C34 (O14980); 231): 1.2; isoTOP-ABPP ratio, O14980_C34 (XPO1 C34 (O14980); ramos): 0.7; isoTOP-ABPP ratio O75362_C286 (ZNF217 C286 (O75362); 500 μM, invitro, 231): 1.0
3 | C=CC(=O)N(Cc1cccnc1)c1ccc(Oc2ccccc2)c(C(F)(F)F)c1 [compound 15] | 0.8 | 1.3 | 1.3 | 1.9 | 1.2 | 1.2 | 1.2 | 2.5 | 0.9 |  |  |  |  |  |  |  |  |  |  |  | isoTOP-ABPP ratio, Q6L8Q7_C108 (PDE12 C108 (Q6L8Q7); 231): 1.1; isoTOP-ABPP ratio, Q15084_C190 (PDIA6 C190 (Q15084); 231): 0.9
4 | C=CC(=O)Nc1cc(C)c(Br)cc1C [compound 40] |  |  |  |  |  |  |  |  |  | 0.9 | 1.0 | 1.6 | 1.6 | 1.9 | 0.8 | 0.9 | 1.3 | 0.8 | 1.1 | 0.8 | isoTOP-ABPP reactivity ratio, P63244_C182 (GNB2L1 C182 (P63244); in-vitro_ramos): 0.6; isoTOP-ABPP reactivity ratio, Q15084_C190 (PDIA6 C190 (Q15084); in-vitro_ramos): 1.7
5 | O=C(CCl)Nc1ccccc1C1CCCCCC1 [compound 35] |  |  |  |  |  |  |  |  |  | 0.9 | 0.9 | 1.3 | 0.7 | 1.3 | 0.8 | 0.9 | 1.0 | 0.8 | 1.3 | 0.8 | isoTOP-ABPP reactivity ratio, P63244_C182 (GNB2L1 C182 (P63244); in-vitro_ramos): 0.9
6 | C=CC(=O)N(Cc1cccnc1)c1cc(C(F)(F)F)cc(C(F)(F)F)c1 [compound 31] |  |  |  |  |  |  |  |  |  | 0.9 | 1.3 | 1.3 | 2.0 | 2.8 | 2.0 | 1.3 | 1.3 | 1.0 | 0.8 | 1.0 | isoTOP-ABPP reactivity ratio, Q15084_C190 (PDIA6 C190 (Q15084); in-vitro_ramos): 1.2
